Source: patent US8076487B2, “Pyridone derivative and herbicide” (Kumiai Chemical Industry Co., Ltd., priority 2006, dated 2011)

Experiments:
Experiment in all cases: Test Example 1: herbicidal effect by soil application to paddy field
Assay type in all cases: in vivo
[1] = system: Japanese bulrush (Scirpus juncoides Roxb.); conditions: for herbicidal effect, Scirpus juncoides Roxb.: paddy field soil application, active ingredient 1,000 g per 1 hectare, wettable powder added dropwise to water surface the day after sowing, examined on the 21st day after application; for herbicidal effect (index), Scirpus juncoides Roxb.: soil application to paddy field, rated by standard of Table 34
Text: (§1) Test Example 1 Test on Herbicidal Effect by Soil Application to Paddy Field In a 100 cm2 plastic pot, paddy field soil was filled. After puddling and leveling, seeds of early watergrass (Echinochloa oryzicola […] (Monochoria vaginalis ([…] Japanese bulrush (Scirpus juncoides Roxb.) were sown, and water was filled to be flooded to a water depth of 3 cm. […] Then, on the 21st day after the application to the plants grew in a greenhouse, the herbicidal effect was examined in accordance with a standard shown in Table 34. [table]

[2] = system: early watergrass (Echinochloa oryzicola Vasing); conditions: for herbicidal effect, Echinochloa oryzicola Vasing: paddy field soil application, active ingredient 1,000 g per 1 hectare, wettable powder added dropwise to water surface the day after sowing, examined on the 21st day after application; for herbicidal effect (index), Echinochloa oryzicola Vasing: soil application to paddy field, rated by standard of Table 34
Text: as §1

[3] = system: heartshape false pickerelweed (Monochoria vaginalis (Burm.f.) C.Presl); conditions: for herbicidal effect, Monochoria vaginalis (Burm. f.) C. Presl: paddy field soil application, active ingredient 1,000 g per 1 hectare, wettable powder added dropwise to water surface the day after sowing, examined on the 21st day after application; for herbicidal effect (index), Monochoria vaginalis (Burm.f.) C.Presl: soil application to paddy field, rated by standard of Table 34
Text: as §1

## Cc1ccc(S(=O)(=O)Oc2c(C(=O)c3ccc(C(F)(F)F)n(CC4CCCO4)c3=O)cnn2C)cc1 (stereo not drawn) [IV-141]
[1]
  herbicidal effect, Scirpus juncoides Roxb.: 5 (90% or more of herbicidal effect and crop phytotoxicity)
[2]
  herbicidal effect, Echinochloa oryzicola Vasing: 5 (90% or more of herbicidal effect and crop phytotoxicity)
[3]
  herbicidal effect, Monochoria vaginalis (Burm. f.) C. Presl: 5 (90% or more of herbicidal effect and crop phytotoxicity)

## Cn1ncc(C(=O)c2ccc(C(F)(F)F)n(CC[S+](C)[O-])c2=O)c1O (stereo not drawn) [IV-52]
[1]
  herbicidal effect, Scirpus juncoides Roxb.: 4 (70 to less than 90% of herbicidal effect and crop phytotoxicity)
[2]
  herbicidal effect, Echinochloa oryzicola Vasing: 4 (70 to less than 90% of herbicidal effect and crop phytotoxicity)
[3]
  herbicidal effect, Monochoria vaginalis (Burm. f.) C. Presl: 4 (70 to less than 90% of herbicidal effect and crop phytotoxicity)

## COc1ccccc1Cn1c(C(F)(F)F)ccc(C(=O)C2=C(O)CCCC2=O)c1=O [I-120]
[1]
  herbicidal effect, Scirpus juncoides Roxb.: 5 (90% or more of herbicidal effect and crop phytotoxicity)
[2]
  herbicidal effect, Echinochloa oryzicola Vasing: 5 (90% or more of herbicidal effect and crop phytotoxicity)
[3]
  herbicidal effect, Monochoria vaginalis (Burm. f.) C. Presl: 5 (90% or more of herbicidal effect and crop phytotoxicity)

## CCCCCCNn1c(C(F)(F)F)ccc(C(=O)C2=C(O)CCCC2=O)c1=O [I-166]
[1]
  herbicidal effect, Scirpus juncoides Roxb.: 5 (90% or more of herbicidal effect and crop phytotoxicity)
[2]
  herbicidal effect, Echinochloa oryzicola Vasing: 5 (90% or more of herbicidal effect and crop phytotoxicity)
[3]
  herbicidal effect, Monochoria vaginalis (Burm. f.) C. Presl: 5 (90% or more of herbicidal effect and crop phytotoxicity)

## CCCS(=O)(=O)Oc1c(C(=O)c2ccc(C(F)(F)F)n(-c3ccc(Cl)c(OC)c3)c2=O)cnn1C [IV-91]
[1]
  herbicidal effect, Scirpus juncoides Roxb.: 5 (90% or more of herbicidal effect and crop phytotoxicity)
[2]
  herbicidal effect, Echinochloa oryzicola Vasing: 4 (70 to less than 90% of herbicidal effect and crop phytotoxicity)
[3]
  herbicidal effect, Monochoria vaginalis (Burm. f.) C. Presl: 4 (70 to less than 90% of herbicidal effect and crop phytotoxicity)

## C=CCn1ncc(C(=O)c2ccc(C(F)(F)F)n(C)c2=O)c1OCc1ccccc1 [IV-228]
[1]
  herbicidal effect, Scirpus juncoides Roxb.: 5 (90% or more of herbicidal effect and crop phytotoxicity)
[2]
  herbicidal effect, Echinochloa oryzicola Vasing: 5 (90% or more of herbicidal effect and crop phytotoxicity)
[3]
  herbicidal effect, Monochoria vaginalis (Burm. f.) C. Presl: 5 (90% or more of herbicidal effect and crop phytotoxicity)

## Cn1ncc(C(=O)c2ccc(C(F)(F)F)n(C)c2=O)c1OCc1ccc(C(C)(C)C)cc1 [IV-192]
[1]
  herbicidal effect, Scirpus juncoides Roxb.: 5 (90% or more of herbicidal effect and crop phytotoxicity)
[2]
  herbicidal effect, Echinochloa oryzicola Vasing: 5 (90% or more of herbicidal effect and crop phytotoxicity)
[3]
  herbicidal effect, Monochoria vaginalis (Burm. f.) C. Presl: 5 (90% or more of herbicidal effect and crop phytotoxicity)

## Cn1c(C(F)(F)Cl)ccc(C(=O)C2=C(O)CCCC2=O)c1=O [I-225]
[1]
  herbicidal effect, Scirpus juncoides Roxb.: 5 (90% or more of herbicidal effect and crop phytotoxicity)
[2]
  herbicidal effect, Echinochloa oryzicola Vasing: 5 (90% or more of herbicidal effect and crop phytotoxicity)
[3]
  herbicidal effect, Monochoria vaginalis (Burm. f.) C. Presl: 5 (90% or more of herbicidal effect and crop phytotoxicity)

## Cn1ncc(C(=O)c2ccc(C(F)(F)F)n(CC3CCCO3)c2=O)c1OC(=O)c1ccc(C(C)(C)C)cc1 (stereo not drawn) [IV-132]
[1]
  herbicidal effect, Scirpus juncoides Roxb.: 5 (90% or more of herbicidal effect and crop phytotoxicity)
[2]
  herbicidal effect, Echinochloa oryzicola Vasing: 5 (90% or more of herbicidal effect and crop phytotoxicity)
[3]
  herbicidal effect, Monochoria vaginalis (Burm. f.) C. Presl: 5 (90% or more of herbicidal effect and crop phytotoxicity)

## COCCCn1c(C(F)(F)F)ccc(C(=O)C2=C(Sc3ccccc3)CCCC2=O)c1=O [II-30]
[1]
  herbicidal effect, Scirpus juncoides Roxb.: 5 (90% or more of herbicidal effect and crop phytotoxicity)
[2]
  herbicidal effect, Echinochloa oryzicola Vasing: 5 (90% or more of herbicidal effect and crop phytotoxicity)
[3]
  herbicidal effect, Monochoria vaginalis (Burm. f.) C. Presl: 5 (90% or more of herbicidal effect and crop phytotoxicity)

## CCCS(=O)(=O)Oc1c(C(=O)c2ccc(C(F)(F)F)n(-c3cccc([S+](C)[O-])c3)c2=O)cnn1C (stereo not drawn) [IV-73]
[1]
  herbicidal effect, Scirpus juncoides Roxb.: 4 (70 to less than 90% of herbicidal effect and crop phytotoxicity)
[2]
  herbicidal effect, Echinochloa oryzicola Vasing: 4 (70 to less than 90% of herbicidal effect and crop phytotoxicity)
[3]
  herbicidal effect, Monochoria vaginalis (Burm. f.) C. Presl: 3 (50 to less than 70% of herbicidal effect and crop phytotoxicity)

## CCCn1ncc(C(=O)c2ccc(C(F)(F)F)n(C)c2=O)c1O [IV-213]
[1]
  herbicidal effect, Scirpus juncoides Roxb.: 5 (90% or more of herbicidal effect and crop phytotoxicity)
[2]
  herbicidal effect, Echinochloa oryzicola Vasing: 5 (90% or more of herbicidal effect and crop phytotoxicity)
[3]
  herbicidal effect, Monochoria vaginalis (Burm. f.) C. Presl: 5 (90% or more of herbicidal effect and crop phytotoxicity)

## CCCS(=O)(=O)Oc1c(C(=O)c2ccc(C(F)(F)F)n(-c3cccc(S(C)(=O)=O)c3)c2=O)cnn1C [IV-75]
[1]
  herbicidal effect, Scirpus juncoides Roxb.: 5 (90% or more of herbicidal effect and crop phytotoxicity)
[2]
  herbicidal effect, Echinochloa oryzicola Vasing: 5 (90% or more of herbicidal effect and crop phytotoxicity)
[3]
  herbicidal effect, Monochoria vaginalis (Burm. f.) C. Presl: 5 (90% or more of herbicidal effect and crop phytotoxicity)

## Cn1ncc(C(=O)c2ccc(C(F)(F)F)n(CC3CCCO3)c2=O)c1OCc1ccc(C(F)(F)F)cc1 (stereo not drawn) [IV-137]
[1]
  herbicidal effect, Scirpus juncoides Roxb.: 3 (50 to less than 70% of herbicidal effect and crop phytotoxicity)
[2]
  herbicidal effect, Echinochloa oryzicola Vasing: 4 (70 to less than 90% of herbicidal effect and crop phytotoxicity)
[3]
  herbicidal effect, Monochoria vaginalis (Burm. f.) C. Presl: 4 (70 to less than 90% of herbicidal effect and crop phytotoxicity)

## CS(=O)(=O)c1ccc(Cn2c(C(F)(F)F)ccc(C(=O)C3=C(O)CCCC3=O)c2=O)cc1 [I-123]
[1]
  herbicidal effect, Scirpus juncoides Roxb.: 5 (90% or more of herbicidal effect and crop phytotoxicity)
[2]
  herbicidal effect, Echinochloa oryzicola Vasing: 5 (90% or more of herbicidal effect and crop phytotoxicity)
[3]
  herbicidal effect, Monochoria vaginalis (Burm. f.) C. Presl: 5 (90% or more of herbicidal effect and crop phytotoxicity)

## Cc1ccc(SC2=C(C(=O)c3ccc(C(F)(F)F)n(C)c3=O)C(=O)CCC2)cc1 [II-9]
[1]
  herbicidal effect, Scirpus juncoides Roxb.: 5 (90% or more of herbicidal effect and crop phytotoxicity)
[2]
  herbicidal effect, Echinochloa oryzicola Vasing: 5 (90% or more of herbicidal effect and crop phytotoxicity)
[3]
  herbicidal effect, Monochoria vaginalis (Burm. f.) C. Presl: 5 (90% or more of herbicidal effect and crop phytotoxicity)

## CCCS(=O)(=O)Oc1c(C(=O)c2ccc(C(F)(F)F)n(CC(C)OCc3ccccc3)c2=O)cnn1C (stereo not drawn) [IV-49]
[1]
  herbicidal effect, Scirpus juncoides Roxb.: 3 (50 to less than 70% of herbicidal effect and crop phytotoxicity)
[2]
  herbicidal effect, Echinochloa oryzicola Vasing: 5 (90% or more of herbicidal effect and crop phytotoxicity)
[3]
  herbicidal effect, Monochoria vaginalis (Burm. f.) C. Presl: 5 (90% or more of herbicidal effect and crop phytotoxicity)

## Cn1c(C(F)(F)F)ccc(C(=O)C2=C(Sc3ccccc3)CCCC2=O)c1=O [II-8]
[1]
  herbicidal effect, Scirpus juncoides Roxb.: 5 (90% or more of herbicidal effect and crop phytotoxicity)
[2]
  herbicidal effect, Echinochloa oryzicola Vasing: 5 (90% or more of herbicidal effect and crop phytotoxicity)
[3]
  herbicidal effect, Monochoria vaginalis (Burm. f.) C. Presl: 5 (90% or more of herbicidal effect and crop phytotoxicity)

## CCCn1c(C(F)(F)F)c(C)cc(C(=O)C(C#N)=C(O)C2CC2)c1=O [V-24]
[1]
  herbicidal effect (index), Scirpus juncoides Roxb.: 5 (90% or more of herbicidal effect and crop phytotoxicity)
[2]
  herbicidal effect (index), Echinochloa oryzicola Vasing: 5 (90% or more of herbicidal effect and crop phytotoxicity)
[3]
  herbicidal effect (index), Monochoria vaginalis (Burm.f.) C.Presl: 5 (90% or more of herbicidal effect and crop phytotoxicity)

## C=CCn1ncc(C(=O)c2ccc(C(F)(F)F)n(C)c2=O)c1O [IV-225]
[1]
  herbicidal effect, Scirpus juncoides Roxb.: 5 (90% or more of herbicidal effect and crop phytotoxicity)
[2]
  herbicidal effect, Echinochloa oryzicola Vasing: 5 (90% or more of herbicidal effect and crop phytotoxicity)
[3]
  herbicidal effect, Monochoria vaginalis (Burm. f.) C. Presl: 5 (90% or more of herbicidal effect and crop phytotoxicity)

## Cn1c(C(F)(F)F)ccc(C(=O)C(C#N)C(=O)C2CC2)c1=O (stereo not drawn) [V-9, 2-cyano-3-cyclopropyl-1-[1,2-dihydro-1-methyl-2-oxo-6-(trifluoromethyl)pyridin-3-yl]propane-1,3-dione]
[1]
  herbicidal effect (index), Scirpus juncoides Roxb.: 5 (90% or more of herbicidal effect and crop phytotoxicity)
[2]
  herbicidal effect (index), Echinochloa oryzicola Vasing: 5 (90% or more of herbicidal effect and crop phytotoxicity)
[3]
  herbicidal effect (index), Monochoria vaginalis (Burm.f.) C.Presl: 5 (90% or more of herbicidal effect and crop phytotoxicity)

## CC1CCC(=O)C(C(=O)c2ccc(C(F)(F)F)n(C)c2=O)=C1O (stereo not drawn) [II-1]
[1]
  herbicidal effect, Scirpus juncoides Roxb.: 5 (90% or more of herbicidal effect and crop phytotoxicity)
[2]
  herbicidal effect, Echinochloa oryzicola Vasing: 5 (90% or more of herbicidal effect and crop phytotoxicity)
[3]
  herbicidal effect, Monochoria vaginalis (Burm. f.) C. Presl: 5 (90% or more of herbicidal effect and crop phytotoxicity)

## Cn1ncc(C(=O)c2ccc(C(F)(F)F)n(C)c2=O)c1OCc1ccc(Cl)cc1 [IV-191]
[1]
  herbicidal effect, Scirpus juncoides Roxb.: 5 (90% or more of herbicidal effect and crop phytotoxicity)
[2]
  herbicidal effect, Echinochloa oryzicola Vasing: 5 (90% or more of herbicidal effect and crop phytotoxicity)
[3]
  herbicidal effect, Monochoria vaginalis (Burm. f.) C. Presl: 5 (90% or more of herbicidal effect and crop phytotoxicity)
